# Target: T1, pY705-STAT3 in PBMC (Homo sapiens, UniProt P40763)
# T1 construct: Cryopreserved Peripheral Blood Mononuclear Cells (PBMC) are from AllCells; host or cells: cryopreserved PBMC
# Experiment: MSD-pSTAT-PBMC Assay (pSTAT3, IL-6 stimulated)
# Type: cell-based
# Settings: PBMC, compound 3 hrs, then 10 ng/mL IL-6 for 10 min; Table 115; read-out: STAT3
# Outline: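 PBMC (human, cryopreserved, overnight recovery) + cpd 3 hrs → IL-6 10 ng/mL (STAT3) or IL-4 1 ng/mL (STAT6) ×10 min → lysis with protease/phosphatase inhibitors → MSD capture/phospho detection. IC50, variable slope, DMSO-normalized.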
# T1 sequence (P40763 whole entry): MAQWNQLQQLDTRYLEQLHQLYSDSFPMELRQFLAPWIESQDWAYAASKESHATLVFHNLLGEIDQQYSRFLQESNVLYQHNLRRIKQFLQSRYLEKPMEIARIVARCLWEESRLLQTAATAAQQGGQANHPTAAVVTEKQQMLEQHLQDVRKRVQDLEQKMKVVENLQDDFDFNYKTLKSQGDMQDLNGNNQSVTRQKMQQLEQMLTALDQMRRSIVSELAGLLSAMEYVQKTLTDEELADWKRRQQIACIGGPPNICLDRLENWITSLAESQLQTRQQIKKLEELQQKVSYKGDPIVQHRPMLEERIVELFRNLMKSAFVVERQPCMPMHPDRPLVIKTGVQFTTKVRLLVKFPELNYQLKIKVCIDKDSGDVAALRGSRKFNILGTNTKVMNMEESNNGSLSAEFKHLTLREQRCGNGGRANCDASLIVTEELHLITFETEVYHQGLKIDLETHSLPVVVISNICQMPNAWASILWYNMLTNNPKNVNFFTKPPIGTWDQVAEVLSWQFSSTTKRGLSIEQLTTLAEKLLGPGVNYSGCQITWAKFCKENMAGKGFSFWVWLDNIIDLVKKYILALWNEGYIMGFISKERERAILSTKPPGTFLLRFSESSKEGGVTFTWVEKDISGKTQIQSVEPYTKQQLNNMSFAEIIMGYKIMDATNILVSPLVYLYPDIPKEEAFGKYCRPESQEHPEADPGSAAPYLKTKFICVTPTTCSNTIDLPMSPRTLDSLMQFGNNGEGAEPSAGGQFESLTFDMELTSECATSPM
row,Structure (SMILES),IC50 [nM]
1,"CCCCOC(=O)[C@@H]1CC(F)(F)CN1P(=O)(Oc1ccccc1)C(F)(F)c1ccc2sc(C(=O)N[C@H]3CCC[C@H]4CC[C@@H](C(=O)N5CC(c6cccnc6)C5)N4C3=O)cc2c1 (stereo partly drawn) [Compound 323, butyl (2S)-1-((difluoro(2-(((3S,6S,9aS)-5-oxo-3-(3-(pyridin-3-yl)azetidine-1-carbonyl)octahydro-1H-pyrrolo[1,2-a]azepin-6-yl)carbamoyl)benzo [b]thiophen-5-yl)methyl)(phenoxy)phosphoryl)-4,4-difluoropyrrolidine-2-carboxylate]",> 3000
2,"CCOC(=O)[C@H](Cc1ccccc1)NP(=O)(Cc1ccc2sc(C(=O)N[C@H]3CCC[C@H]4CC[C@@H](C(=O)N5CC(c6cccnc6)C5)N4C3=O)cc2c1)Oc1ccccc1 (stereo partly drawn) [Compound 389, ethyl (((2-(((3S,6S,9aS)-5-oxo-3-(3-(pyridin-3-yl)azetidine-1-carbonyl)octahydro-1H-pyrrolo[1,2-a]azepin-6-yl)carbamoyl)benzo [b]thiophen-5-yl)methyl)(phenoxy)phosphoryl)-L-phenylalaninate]",100 to 1000
3,"CC(C)C[C@H](NP(=O)(Cc1ccc2sc(C(=O)N[C@H]3CCC[C@H]4CC[C@@H](C(=O)N5CC(c6cccnc6)C5)N4C3=O)cc2c1)Oc1ccccc1)C(=O)OCc1ccccc1 (stereo partly drawn) [Compound 390, benzyl (((2-(((3S,6S,9aS)-5-oxo-3-(3-(pyridin-3-yl)azetidine-1-carbonyl)octahydro-1H-pyrrolo[1,2-a]azepin-6-yl)carbamoyl)benzo [b]thiophen-5-yl)methyl)(phenoxy)phosphoryl)-L-leucinate]",100 to 1000
4,"CC(C)OC(=O)[C@@H]1CCCN1P(=O)(Cc1ccc2sc(C(=O)N[C@H]3CCC[C@H]4CC[C@@H](C(=O)N5CC(c6cccnc6)C5)N4C3=O)cc2c1)Oc1ccccc1 (stereo partly drawn) [Compound 391, isopropyl (((2-(((3S,6S,9aS)-5-oxo-3-(3-(pyridin-3-yl)azetidine-1-carbonyl)octahydro-1H-pyrrolo[1,2-a]azepin-6-yl)carbamoyl)benzo [b]thiophen-5-yl)methyl)(phenoxy)phosphoryl)-L-prolinate]",1000 to 3000
5,"COC[C@H](NP(=O)(Cc1ccc2sc(C(=O)N[C@H]3CCC[C@H]4CC[C@@H](C(=O)N5CC(c6cccnc6)C5)N4C3=O)cc2c1)Oc1ccccc1)C(=O)OC(C)C (stereo partly drawn) [Compound 392, isopropyl O-methyl-N-(((2-(((3S,6S,9aS)-5-oxo-3-(3-(pyridin-3-yl)azetidine-1-carbonyl)octahydro-1H-pyrrolo[1,2-a]azepin-6-yl)carbamoyl)benzo [b]thiophen-5-yl)methyl)(phenoxy)phosphoryl)-L-serinate]",100 to 1000
6,"COCCOC(=O)[C@H](C)NP(=O)(Cc1ccc2sc(C(=O)N[C@H]3CCC[C@H]4CC[C@@H](C(=O)N5CC(c6cccnc6)C5)N4C3=O)cc2c1)Oc1ccccc1 (stereo partly drawn) [Compound 393, 2-methoxyethyl (((2-(((3S,6S,9aS)-5-oxo-3-(3-(pyridin-3-yl)azetidine-1-carbonyl)octahydro-1H-pyrrolo[1,2-a]azepin-6-yl)carbamoyl)benzo [b]thiophen-5-yl)methyl)(phenoxy)phosphoryl)-L-alaninate]",100 to 1000
7,"C[C@H](NP(=O)(Cc1ccc2sc(C(=O)N[C@H]3CCC[C@H]4CC[C@@H](C(=O)N5CC(c6cccnc6)C5)N4C3=O)cc2c1)Oc1ccccc1)C(=O)OCc1ccccc1 (stereo partly drawn) [Compound 394, benzyl (((2-(((3S,6S,9aS)-5-oxo-3-(3-(pyridin-3-yl)azetidine-1-carbonyl)octahydro-1H-pyrrolo[1,2-a]azepin-6-yl)carbamoyl)benzo [b]thiophen-5-yl)methyl)(phenoxy)phosphoryl)-L-alaninate]",< 100
8,"CC(C)OC(=O)C(C)(C)NP(=O)(Cc1ccc2sc(C(=O)N[C@H]3CCC[C@H]4CC[C@@H](C(=O)N5CC(c6cccnc6)C5)N4C3=O)cc2c1)Oc1ccccc1 (stereo partly drawn) [Compound 395, isopropyl 2-methyl-2-((((2-(((3S,6S,9aS)-5-oxo-3-(3-(pyridin-3-yl)azetidine-1-carbonyl)octahydro-1H-pyrrolo[1,2-a]azepin-6-yl)carbamoyl)benzo [b]thiophen-5-yl)methyl)(phenoxy)phosphoryl)amino) propanoate]",100 to 1000
9,"O=C(N[C@H]1CCC[C@H]2CC[C@@H](C(=O)N3CC(c4cccnc4)C3)N2C1=O)c1cc2cc(CP(=O)(N[C@H]3CCOC3=O)Oc3ccccc3)ccc2s1 (stereo partly drawn) [Compound 398, phenyl P-((2-(((3S,6S,9aS)-5-oxo-3-(3-(pyridin-3-yl)azetidine-1-carbonyl)octahydro-1H-pyrrolo[1,2-a]azepin-6-yl)carbamoyl)benzo [b]thiophen-5-yl)methyl)-N-((S)-2-oxotetrahydrofuran-3-yl)phosphonamidate]",> 3000
10,"CC(C)OC(=O)[C@H](C)NP(=O)(Cc1ccc2sc(C(=O)N[C@H]3CCC[C@H]4CC[C@@H](C(=O)N5CC(c6cccnc6)C5)N4C3=O)cc2c1)N[C@@H](C)C(=O)OC(C)C [Compound 399, diisopropyl 2,2′-((((2-(((3S,6S,9aS)-5-oxo-3-(3-(pyridin-3-yl)azetidine-1-carbonyl)octahydro-1H-pyrrolo[1,2-a]azepin-6-yl)carbamoyl)benzo [b]thiophen-5-yl)methyl)phosphoryl)bis(azanediyl)) (2S,2′S)-dipropionate]",1000 to 3000
11,"CCCOC(=O)[C@H](C)NP(=O)(Oc1ccccc1)C(F)(F)c1ccc2sc(C(=O)N[C@H]3CCC[C@H]4CC[C@@H](C(=O)N5CC(c6cccnc6)C5)N4C3=O)cc2c1 (stereo partly drawn) [Compound 400, propyl ((difluoro(2-(((3S,6S,9aS)-5-oxo-3-(3-(pyridin-3-yl)azetidine-1-carbonyl)octahydro-1H-pyrrolo[1,2-a]azepin-6-yl)carbamoyl)benzo [b]thiophen-5-yl)methyl)(phenoxy)phosphoryl)-L-alaninate]",100 to 1000
12,"O=C(N[C@H]1CCC[C@H]2CC[C@@H](C(=O)N3CC(c4cccnc4)C3)N2C1=O)c1cc2cc(CP(=O)(N[C@@H](CCc3ccccc3)C(=O)OCc3ccccc3)Oc3ccccc3)ccc2s1 (stereo partly drawn) [Compound 401, benzyl (2S)-2-((((2-(((3S,6S,9aS)-5-oxo-3-(3-(pyridin-3-yl)azetidine-1-carbonyl)octahydro-1H-pyrrolo[1,2-a]azepin-6-yl)carbamoyl)benzo [b]thiophen-5-yl)methyl)(phenoxy)phosphoryl)amino)-4-phenylbutanoate]",> 3000
13,"CCCCOC(=O)[C@H](C)NP(=O)(Cc1ccc2sc(C(=O)N[C@H]3CCC[C@H]4CC[C@@H](C(=O)N5CC(c6cccnc6)C5)N4C3=O)cc2c1)N[C@@H](C)C(=O)OCCCC [Compound 420, dibutyl 2,2′-((((2-(((3S,6S,9aS)-5-oxo-3-(3-(pyridin-3-yl)azetidine-1-carbonyl)octahydro-1H-pyrrolo[1,2-a]azepin-6-yl)carbamoyl)benzo [b]thiophen-5-yl)methyl)phosphoryl)bis(azanediyl)) (2S,2′S)-dipropionate]",100 to 1000
14,"CCOC(=O)[C@H](C)NP(=O)(Cc1ccc2sc(C(=O)N[C@H]3CCC[C@H]4CC[C@@H](C(=O)N5CC(c6cccnc6)C5)N4C3=O)cc2c1)Oc1ccccc1 (stereo partly drawn) [Compound 422, ethyl (((2-(((3S,6S,9aS)-5-oxo-3-(3-(pyridin-3-yl)azetidine-1-carbonyl)octahydro-1H-pyrrolo[1,2-a]azepin-6-yl)carbamoyl)benzo [b]thiophen-5-yl)methyl)(phenoxy)phosphoryl)-L-alaninate]",< 100
15,"CCCOC(=O)[C@H](C)NP(=O)(Cc1ccc2sc(C(=O)N[C@H]3CCC[C@H]4CC[C@@H](C(=O)N5CC(c6cccnc6)C5)N4C3=O)cc2c1)N1CCOCC1 (stereo partly drawn) [Compound 426, propyl (morpholino((2-(((3S,6S,9aS)-5-oxo-3-(3-(pyridin-3-yl)azetidine-1-carbonyl)octahydro-1H-pyrrolo[1,2-a]azepin-6-yl)carbamoyl)benzo [b]thiophen-5-yl)methyl)phosphoryl)-L-alaninate]",> 3000
16,"CCCOC(=O)[C@H](C)NP(=O)(Cc1ccc2sc(C(=O)N[C@H]3CCC[C@H]4CC[C@@H](C(=O)N5CC(c6cccnc6)C5)N4C3=O)cc2c1)OCC(F)(F)F (stereo partly drawn) [Compound 428, propyl (((2-(((3S,6S,9aS)-5-oxo-3-(3-(pyridin-3-yl)azetidine-1-carbonyl)octahydro-1H-pyrrolo[1,2-a]azepin-6-yl)carbamoyl)benzo [b]thiophen-5-yl)methyl)(2,2,2-trifluoroethoxy)phosphoryl)-L-alaninate]",< 100
17,"CCCOC(=O)[C@H](COC)NP(=O)(Cc1ccc2sc(C(=O)N[C@H]3CCC[C@H]4CC[C@@H](C(=O)N5CC(c6cccnc6)C5)N4C3=O)cc2c1)Oc1ccccc1 (stereo partly drawn) [Compound 430, propyl O-methyl-N-(((2-(((3S,6S,9aS)-5-oxo-3-(3-(pyridin-3-yl)azetidine-1-carbonyl)octahydro-1H-pyrrolo[1,2-a]azepin-6-yl)carbamoyl)benzo [b]thiophen-5-yl)methyl)(phenoxy)phosphoryl)-L-serinate]",100 to 1000
18,"CCCOC(=O)[C@H](CCOC)NP(=O)(Cc1ccc2sc(C(=O)N[C@H]3CCC[C@H]4CC[C@@H](C(=O)N5CC(c6cccnc6)C5)N4C3=O)cc2c1)Oc1ccccc1 (stereo partly drawn) [Compound 431, propyl O-methyl-N-(((2-(((3S,6S,9aS)-5-oxo-3-(3-(pyridin-3-yl)azetidine-1-carbonyl)octahydro-1H-pyrrolo[1,2-a]azepin-6-yl)carbamoyl)benzo [b]thiophen-5-yl)methyl)(phenoxy)phosphoryl)-L-homoserinate]",100 to 1000
19,"CCCOC(=O)[C@H](Cc1ccccn1)NP(=O)(Cc1ccc2sc(C(=O)N[C@H]3CCC[C@H]4CC[C@@H](C(=O)N5CC(c6cccnc6)C5)N4C3=O)cc2c1)Oc1ccccc1 (stereo partly drawn) [Compound 432, propyl (2S)-2-((((2-(((3S,6S,9aS)-5-oxo-3-(3-(pyridin-3-yl)azetidine-1-carbonyl)octahydro-1H-pyrrolo[1,2-a]azepin-6-yl)carbamoyl)benzo [b]thiophen-5-yl)methyl)(phenoxy)phosphoryl)amino)-3-(pyridin-2-yl)propanoate]",100 to 1000
